Data on 18 compounds can be found in patent US9259426B2, “4,6-di- and 2,4,6-trisubstituted quinazoline derivatives useful for treating viral infections” (Gilead Sciences, Inc., priority 2006, dated 2016).

Data set [1] is described as follows: CC50 assay (CellTiter-Glo) in Huh-7 HCV replicon cells. It counts as cell-based, human. The following applies: human, 3 days incubation, CellTiter-Glo luminescence, read-out: CC50 (50% cytostatic concentration). How it is done: (§1) The anti HCV activity of the quinazoline derivatives of this invention was tested in a human hepatoma Huh-7 cell line harbouring a HCV replicon. The assay comprised the following steps:
(§2) Step 1: compound preparation and serial dilution
(§3) • 1. for water soluble quinazoline derivatives, a volume of 500 μL of solution in cell media (DMEM, 10% FBS, P/S, L-Glutamine) was prepared with a concentration being twice the concentration of the starting final serial dilution concentration. A volume of 150 μL of the solution was added to the pre-specified wells in column 1 of a 96-well cell culture plate (PerkinElmer, white plate, cat. #6005181, for EC50 assay; black plate, cat. #6005182 for CC50 assay). The rest of the plate, columns 2-12, was filled with 100 μL of cell media. The plate was then placed on a Precision 2000 Workstation to start the serial dilution. Compounds were diluted three times each step from column 1 to column 10. Column 11 was used as a blank control (no compound added). • 2. for quinazoline derivatives requiring DMSO to dissolve, serial dilution is performed in 50% DMSO in a 384-well plate. A solution containing a compound at 100-fold concentration of the starting final serial dilution concentration was prepared in 50% DMSO and added to the pre-specified wells in column 1 of a polypropylene 384-well plate. The plate was then placed on a Precision 2000 Workstation to start the serial dilution. After the serial dilution, a volume of 2 μL of the solution was transferred from the 384-well plate to a 96-well cell culture plate containing 100 μL of cell media on a Biomek FX Workstation. The DMSO concentration in the final assay condition was 0.5% after cells are added to the plate and the total volume in each well is brought to 200 μL. Step 2: to each well of the serial dilution plate prepared above, 100 μL of cell media containing 6000 suspended Huh-7 HCV replicon cells was added with a Multidrop workstation. The plates were incubated for 3 days at 37° C. with 5% CO2. Step 3: Detection: • a) for the EC50 assay, the media in a 96-well cell culture plate was aspirated with a Biotek EL405 plate-washer. A volume of 200 μL of a solution containing a 1:1 mixture of cell-lysis buffer (Promega, Luciferase Cell Culture Lysis 5× Reagent, cat. #E1531) and luciferase substrate solution (Promega, Luciferase Assay, cat.# E4550) was added to each well of the plate with Multidrop. The plate was incubated for 30 minutes at room temperature before the luminescence signal was measured with a TopCount plate-reader. • b) for the CC50 assay, a volume of 100 μL of pre-mixed CeliTiter-Glo (Promega, cat.# G7572) solution is added directly to the cell culture in each well of the plate and the luminescence signal is measured with a TopCount plate-reader after 10 minutes of incubation at room temperature.
(§4) Results in the table below are expressed by the following data: • the 50% cytostatic concentration (CC50), i.e. the concentration that results in 50% inhibition of cell growth, and • the 50% effective concentration (EC50), i.e. the concentration that protects 50% of the cell monolayer from virus-induced cytopathic effect.

The test system of data set [2] is HCV replicon in human hepatoma Huh-7 cell line. The experiment in a line: Anti-HCV replicon assay (EC50, luciferase readout). It is filed as cell-based. As to conditions: Hepatitis C virus, Huh-7, 72 h, read-out: EC50 (50% effective concentration). How it is done: as §1, §2, §3, §4
In a further data set the test system is Huh-7 HCV replicon cells. The experiment in a line: CC50 assay (CellTiter-Glo) in Huh-7 HCV replicon cells. It is filed as cell-based, human. The following applies: 3 days incubation, CellTiter-Glo luminescence, read-out: CC50 (50% cytostatic concentration). Here is the method:
as §1, §2, §3, §4

Consider `COc1ccc(-c2ccc3nc(N)nc(N4CCOCC4)c3c2)cc1OC` [Example 14, 2-amino-6-(3,4-dimethoxyphenyl)-4-(N-morpholino)quinazoline], for which the CC50 at 3 days in data set [1] was less than 10 µM. Also, the EC50 in data set [2] is less than 0.3 µM.

Consider `COc1ccc(-c2ccc3nc(N)nc(Nc4cccc(Br)c4)c3c2)cc1OC` [Example 16, 2-amino-6-(3,4-dimethoxyphenyl)-4-[N-(3-bromo)-anilino]-quinazoline], for which the CC50 at 3 days in data set [1] was greater than 20 µM. Also, in data set [2], the EC50 is less than 0.3 µM.

Consider `Nc1nc(N2CCOCC2)c2cc(-c3ccc(Cl)cc3)ccc2n1` [Example 27, 2-amino-6-(4-chlorophenyl)-4-(N-morpholino)-quinazoline], for which, in data set [1], the CC50 at 3 days is 10 to 20 µM. Moreover, the EC50 in data set [2] fell in the range of 0.3 to 1 µM.

As to `Nc1nc(N2CCOCC2)c2cc(-c3ccc(F)cc3)ccc2n1` [Example 28, 2-amino-6-(4-fluorophenyl)-4-(N-morpholino)-quinazoline], the CC50 at 3 days in data set [1] was less than 10 µM. Besides, in data set [2], the EC50 was 0.3 to 1 µM.

For `CC(=O)Nc1ccc(-c2ccc3nc(N)nc(N4CCOCC4)c3c2)cc1` [Example 30, 2-amino-6-(4-acetamidophenyl)-4-(N-morpholino)quinazoline], the CC50 at 3 days in data set [1] lay within 10 to 20 µM. Moreover, the EC50 in data set [2] fell in the range of 1 to 10 µM.

In the case of `CC(=O)Nc1ccc(-c2ccc3nc(N)nc(N4CCCCC4)c3c2)cc1` [Example 31, 2-amino-6-(4-acetamidophenyl)-4-(N-piperidino)quinazoline], in data set [1], the CC50 at 3 days lay in the range of 10 to 20 µM. Besides, in data set [2], the EC50 is 1 to 10 µM.

As for `CC(=O)Nc1ccc(-c2ccc3nc(N)nc(N4CCN(C(C)=O)CC4)c3c2)cc1` [Example 32, 2-amino-6-(4-acetamidophenyl)-4-(N-acetylpiperazino)quinazoline], the CC50 at 3 days in data set [1] was greater than 20 µM. The EC50 in data set [2] fell in the range of 1 to 10 µM.

Take `CC(=O)Nc1ccc(-c2ccc3nc(N)nc(N4CCN(C)CC4)c3c2)cc1` [Example 34, 2-amino-6-(4-acetamidophenyl)-4-(N-methylpiperazino)quinazoline]: the CC50 at 3 days in data set [1] lay within 10 to 20 µM. The EC50 in data set [2] was 1 to 10 µM.

Take `Fc1ccc(-c2ccc3ncnc(N4CCOCC4)c3c2)cc1` [Example 37, 6-(4-fluorophenyl)-4-(N-morpholino)-quinazoline]: in data set [1], the CC50 at 3 days is greater than 20 µM. Further, the EC50 in data set [2] lay in the range of 1 to 10 µM.

Consider `Nc1ncnc2ccc(-c3ccc(F)cc3)cc12` [Example 39, 4-amino-6-(4-fluorophenyl)-quinazoline], for which the CC50 at 3 days in data set [1] was greater than 20 µM. Moreover, the EC50 in data set [2] was 1 to 10 µM.

For the compound `CCCNc1ncnc2ccc(-c3ccc(F)cc3)cc12` [Example 43, 4-(N-propylamino)-6-(4-fluorophenyl)-quinazoline], in data set [1], the CC50 at 3 days is greater than 20 µM. In addition, the EC50 in data set [2] lay within 1 to 10 µM.

As for `CN(C)c1ncnc2ccc(-c3ccc(F)cc3)cc12` [Example 45, 4-(N,N-dimethylamino)-6-(4-fluorophenyl)-quinazoline], the CC50 at 3 days in data set [1] was greater than 20 µM. In data set [2], the EC50 lay within 1 to 10 µM.

On to `Fc1ccc(-c2ccc3ncnc(NC4CC4)c3c2)cc1` [Example 47, 4-(N-cyclopropylamino)-6-(4-fluorophenyl)-quinazoline], for which the CC50 at 3 days in data set [1] is greater than 20 µM. In data set [2], the EC50 lay within 1 to 10 µM.

Consider `Nc1nc(Nc2ccccc2)c2cc(-c3ccc(F)cc3)ccc2n1` [Example 48, 2-amino-6-(4-fluorophenyl)-4-(N-anilino)-quinazoline], for which the CC50 at 3 days in data set [1] was less than 10 µM. Also, in data set [2], the EC50 was in the range of 0.3 to 1 µM.

On to `NS(=O)(=O)c1ccc(CNc2nc(NCC(F)(F)F)c3cc(-c4ccc(C(=O)NC5CC5)cc4)ccc3n2)cc1` [Example 51, N-Cyclopropyl-4-[2-(4-sulfamoyl-benzylamino)-4-(2,2,2-trifluoroethylamino)-quinazolin-6-yl]-benzamide], for which the CC50 at 3 days in data set [1] is greater than 20 µM. In data set [2], the EC50 was less than 0.3 µM.

For the compound `NS(=O)(=O)c1ccc(CNc2nc(NCC(F)(F)F)c3cc(-c4ccc(F)cc4)ccc3n2)cc1` [Example 52, 4-{[6-(4-Fluoro-phenyl)-4-(2,2,2-trifluoro-ethylamino)quinazolin-2-ylamino]-methyl}-benzenesulfonamide], in data set [1], the CC50 at 3 days is less than 10 µM. The EC50 in data set [2] was less than 0.3 µM.

Regarding `Cn1ccc(Nc2nc(NC3CC3)c3cc(-c4ccc(F)cc4)ccc3n2)n1` [Example 54, N4-cyclopropyl-6-(4-fluoro-phenyl)-N2-(1-methyl-1H-pyrazol-3-yl)-quinazoline-2,4-diamine], the CC50 at 3 days in data set [1] was less than 10 µM. The EC50 in data set [2] was less than 0.3 µM.

In the case of `COCCNc1nc(N)nc2ccc(-c3ccc(C(=O)NC4CC4)cc3)cc12` [Example 56, 4-[2-Amino-4-(2-methoxy-ethylamino)-quinazolin-6-yl]-N cyclopropyl-benzamide], the CC50 in the data set with Huh-7 HCV replicon cells was greater than 20 µM.
